Results taken from patent publication US5952307A, “Basic α-aminoalkylphosphonate derivatives” (priority 1997, dated 1999).

Legend:
Format in all cases: biochemical
human granzyme A = target: T1, human granzyme A (Homo sapiens, UniProt P12544); experiment: Inactivation rate of human granzyme A, incubation method; conditions: Table I; 0.1M Hepes, 0.01M CaCl2 pH 7.5, 25° C., 7.6% DMSO, substrate Z--Arg--SBzl
T1 sequence (P12544 29-262): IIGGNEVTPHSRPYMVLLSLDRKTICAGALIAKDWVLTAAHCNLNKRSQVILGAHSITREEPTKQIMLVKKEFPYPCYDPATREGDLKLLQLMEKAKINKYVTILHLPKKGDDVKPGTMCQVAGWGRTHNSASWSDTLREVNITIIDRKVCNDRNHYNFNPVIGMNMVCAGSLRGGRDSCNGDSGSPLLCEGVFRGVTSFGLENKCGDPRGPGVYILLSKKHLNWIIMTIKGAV
Description: (§1) Inactivation rates of serine proteases by aryl diesters of peptidyl derivatives of α-aminoalkylphosphonates were measured by the incubation method. An aliquot of inhibitor (25 or 50 μl) in Me2 SO was added to a buffered enzyme solution (0.01-2.3 μM) to initiate the inactivation. Aliquots (50 μl) were withdrawn at various intervals and the residual enzymatic activity was measured. Me2 SO concentration in the reaction mixture was 8-12% (v/v). A 0.1 M HEPES, 0.01 M CaCl2, pH 7.5 buffer was utilized for trypsin and trypsin-like enzymes. A 0.1 M HEPES, 0.5 M NaCl, pH 7.5, was utilized for the other serine proteases. Peptide thioesters or peptide nitroanilides with the appropriate sequences were used as substrates for various serine proteases. All peptide thioesters hydrolysis rates were measured with the assay mixture containing 4,4'-dithiodipyridine {ε324 =19800 M^-1 cm^-1; Grasetti & Murray, Arch. Biochem. Biophys. 1967, 119, 41-48}. Peptide 4-nitroanilide hydrolysis was measured at 410 nm {ε410 =8800 M^-1 cm^-1; Erlanger et al., Arch. Biochem. Biophys. 1961, 95, 271-278}. First order inactivation rate constants (Kobs) were obtained from plots of In vt /vo vs time, and the correlation coefficients were greater then 0.98.
(§2) ^a Inhibition constants were measured in 0.1M Hepes, 0.01M CaCl2
(§3) pH 7.5 for trypsin, granzymes A, and K, and in 0.1M Hepes, 10% glycerol,
(§4) 10 mM heparin, pH 7.5 for mast cell tryptase, and at 25° C. The
(§5) reaction mixtures contained 2% DMSO for trypsin, 7.6% for granzyme A, and
(§6) 7.1% for granzyme K and tryptase. The substrate was Z--Arg--SBzl for
(§7) granzymes and trypsin, and Z--Arg--SBzl or Z--Lys--SBzl for tryptase in
(§8) the presence of DTNB. The inhibitor # concentration ranged from 0.001 to
(§9) ^b NI, no inhibition after 25 min of incubation with enzyme.

rat granzyme K = target: T2, rat granzyme K (Rattus norvegicus, UniProt P49864); experiment: Inactivation rate of rat granzyme K, incubation method; conditions: Table I; 0.1M Hepes, 0.01M CaCl2 pH 7.5, 25° C., 7.1% DMSO, substrate Z--Arg--SBzl; NI = no inhibition after 25 min of incubation
T2 sequence (P49864 26-258): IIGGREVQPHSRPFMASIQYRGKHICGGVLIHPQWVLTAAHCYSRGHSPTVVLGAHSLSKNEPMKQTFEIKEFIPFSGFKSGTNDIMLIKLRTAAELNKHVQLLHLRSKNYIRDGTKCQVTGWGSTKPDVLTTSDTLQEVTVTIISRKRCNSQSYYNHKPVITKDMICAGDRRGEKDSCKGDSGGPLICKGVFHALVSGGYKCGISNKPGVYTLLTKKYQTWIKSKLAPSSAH
Description: as §1, §2, §3, §4, §5, §6, §7, §8, §9

mast cell tryptase = mast cell tryptase (Homo sapiens, UniProt Q15661); experiment: Inactivation rate of mast cell tryptase, incubation method; conditions: for kobsd /[I] mast cell tryptase: Table I, 0.1M Hepes, 10% glycerol, 10 mM heparin, pH 7.5, 25° C., 7.1% DMSO, NI = no inhibition after 25 min of incubation; for kobs /[I] mast cell tryptase: Table II, 0.07 μM tryptase, 20-66 μM inhibitor, Hepes pH 7.5, heparin, 9% glycerol, 8% DMSO, 25° C., NI = no inhibition
Description: as §1, §2, §3, §4, §5, §6, §7, §8, §9
(§10) ^a Enzyme was incubated with the inhibitor in 250 μL of the proper
(§11) containing 428 mM NaCl and 8% DMSO; 0.07 μM tryptase, 20-66 μM
inhibitor # in an mM Hepes, pH 7.5 buffer containing 8 mM heparin, 166 m
NaCl, 0.8 mM Mes, 9% glycerol and 8% DMSO; 0.42 μM factor Xa, 66 μM
(§12) DMSO. Aliquots of 25 μL were withdrawn at various intervals and the
(§13) residual enzymatic activity was measured as described in experimental
(§14) section. The kobs values were calculated from pseudofirst-order
(§15) ^a Enzyme (0.06-0.5 μM) was incubated with the inhibitor (0.25-42
(§16) μM) in 250 μL of the proper buffer containing 9% DMSO at 25°
(§17) C. The final inhibition reaction mixtures are given in the footnote to
(§18) Table 1. Aliquots of 25 μL were withdrawn at various intervals and the […]

bovine trypsin = target: T3, bovine trypsin (Bos taurus, UniProt P00760); experiment: Inactivation rate of bovine trypsin, incubation method; conditions: for kobsd /[I] bovine trypsin: Table I, 0.1M Hepes, 0.01M CaCl2 pH 7.5, 25° C., 2% DMSO, substrate Z--Arg--SBzl, NI = no inhibition after 25 min; for kobs /[I] bovine trypsin: Table II, 0.13 μM trypsin, 0.25-42 μM inhibitor, 80 mM Hepes pH 7.5, 1 mM CaCl2, 8% DMSO, 25° C., NI = no inhibition
T3 sequence (P00760 24-246): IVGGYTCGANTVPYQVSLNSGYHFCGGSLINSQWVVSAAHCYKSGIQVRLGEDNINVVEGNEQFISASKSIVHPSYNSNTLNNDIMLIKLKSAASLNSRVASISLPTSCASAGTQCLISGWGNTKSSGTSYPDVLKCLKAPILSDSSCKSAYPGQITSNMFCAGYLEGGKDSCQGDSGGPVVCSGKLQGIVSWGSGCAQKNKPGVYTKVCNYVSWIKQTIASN
Description: as §1, §2, §3, §4, §5, §6, §7, §8, §9, §10
(§19) buffer at 25° C. Specifically, the inhibition reation mixtures wer
composed of: 0.13 μM trypsin, 0.25-42 μM inhibitor in an 80 mM
(§20) Hepes, pH 7.5 buffer containing 1 mM CaCl2 and 8% DMSO; 0.07 μM
as §12, §13, §14, §15, §16, §17, §18

human thrombin = target: T4, human thrombin (Homo sapiens, UniProt P00734); conditions: Table II; 0.07 μM thrombin, 0.25-42 μM inhibitor, 80 mM Hepes pH 7.5, 428 mM NaCl, 8% DMSO, 25° C.; NI = no inhibition
T4 construct: bovine trypsin, human thrombin
Description: as §1, with “271-278}.” for “271-278}. First order inactivation rate constants (Kobs) were obtained from plots of In vt /vo vs time, and the correlation coefficients were greater then 0.98.”
as §10, §19, §20
thrombin, 0.25-42 μM inhibitor in an 80 mM Hepes, pH 7.5 buffer
as §11, §12, §13, §14, §15, §16, §17, §18

Chain of mast cell tryptase (Q15661 31-275): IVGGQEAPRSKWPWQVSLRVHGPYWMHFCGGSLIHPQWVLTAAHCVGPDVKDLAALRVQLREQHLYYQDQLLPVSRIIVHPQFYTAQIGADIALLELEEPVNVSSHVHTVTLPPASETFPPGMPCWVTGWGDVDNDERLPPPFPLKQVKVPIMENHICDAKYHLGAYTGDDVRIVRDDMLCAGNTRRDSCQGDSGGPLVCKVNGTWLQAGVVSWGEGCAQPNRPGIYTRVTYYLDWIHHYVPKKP

| Structure (SMILES) | kobsd /[I] human granzyme A (human granzyme A) [M⁻¹ s⁻¹] | kobsd /[I] rat granzyme K (rat granzyme K) [M⁻¹ s⁻¹] | kobsd /[I] mast cell tryptase (mast cell tryptase) [M⁻¹ s⁻¹] | kobs /[I] mast cell tryptase (mast cell tryptase) [M⁻¹ s⁻¹] | kobsd /[I] bovine trypsin (bovine trypsin) [M⁻¹ s⁻¹] | kobs /[I] bovine trypsin (bovine trypsin) | kobs /[I] human thrombin (human thrombin) |
| --- | --- | --- | --- | --- | --- | --- | --- |
| C[C@H](NC(=O)[C@@H]1CCCN1C(=O)OCc1ccccc1)C(=O)NC(c1ccc(C(=N)N)cc1)P(=O)(Oc1ccccc1)Oc1ccccc1 (stereo partly shown) [Cbz--Pro--Ala-(4-AmPhGly)^P (OPh)2] | 380 ± 18 | 5 | 1 | 1 ± 0 | 240 ± 10 | 240 ± 10 M⁻¹ s⁻¹ | 70 ± 2 M⁻¹ s⁻¹ |
| Cl.N=C(N)c1ccc(C(NC(=O)[C@@H]2CCCN2C(=O)OCc2ccccc2)P(=O)(Oc2ccccc2)Oc2ccccc2)cc1 (stereo partly shown) [Cbz--Pro-(4-AmPhGly)^P (OPh)2, Diphenyl N-(N-benzyloxycarbonylprolyl)amino(4-amidinophenyl)methanephosphonate hydrochloride] | 790 ± 17 | 34 ± 4 | 1.2 | 1 | 910 ± 81 | 910 ± 81 M⁻¹ s⁻¹ | 640 ± 86 M⁻¹ s⁻¹ |
| CC(NC(=O)C(CC(=O)O)NC(=O)OCc1ccccc1)C(=O)NC(c1ccc(C(=N)N)cc1)P(=O)(Oc1ccccc1)Oc1ccccc1 (mixture of isomers) [Cbz--Asp--Ala-(4-AmPhGly)^P (OPh)2] | 240 ± 5 | 6 | 0.7 | – | 2550 ± 145 | 2,550 ± 145 M^-1 s^-1 | 110 ± 12 M⁻¹ s⁻¹ |
| C[C@@H](O)[C@H](NC(=O)OCc1ccccc1)C(=O)NC(c1ccc(C(=N)N)cc1)P(=O)(Oc1ccccc1)Oc1ccccc1 (stereo partly shown) [Cbz--Thr-(4-AmPhGly)^P (OPh)2] | 2220 ± 40 | 3 | – | – | 97 | 97 ± 2 M⁻¹ s⁻¹ | 61 ± 3 M⁻¹ s⁻¹ |
| CC(C)(C)OC(=O)N[C@H](Cc1ccccc1)C(=O)N1CCC[C@H]1C(=O)NC(c1ccc(C(=N)N)cc1)P(=O)(Oc1ccccc1)Oc1ccccc1.Cl (stereo partly drawn) [Boc--D--Phe--Pro-(4-AmPhGly)^P (OPh)2, Diphenyl N-(Boc-D-Phe-Pro)amino(4-amidinophenyl)methanephosphonate hydrochloride] | 170 | 56 ± 2 | 0.4 | – | 130 | 2,200 M^-1 s^-1 | 11,000 M^-1 s^-1 |
| CC(C)C(NC(=O)OCc1ccccc1)C(=O)NC(c1ccc(C(=N)N)cc1)P(=O)(Oc1ccccc1)Oc1ccccc1 (mixture of isomers) [Cbz--Val-(4-AmPhGly)^P (OPh)2] | 6.7 ± 0.1 | 0.7 ± 0.04 | 21.2 ± 0.2 | 21.2 ± 0.2 | 41 ± 3 | 18 ± 2 M⁻¹ s⁻¹ | 5.5 ± 0.4 M⁻¹ s⁻¹ |
| C[C@H](NC(=O)[C@H](CC(=O)OC(C)(C)C)NC(=O)OCc1ccccc1)C(=O)NC(c1ccc(C(=N)N)cc1)P(=O)(Oc1ccccc1)Oc1ccccc1 (stereo partly shown) [Cbz--Asp(O-t-Bu)--Ala-(4-AmPhGly)^P (OPh)2] | 280 ± 5 | – | 3 | 3 ± 0 | 2000 ± 24 | 2,000 ± 24 M^-1 s^-1 | 480 ± 93 M⁻¹ s⁻¹ |
| CC(NC(=O)C(CCCCNC(=O)OC(C)(C)C)NC(=O)OCc1ccccc1)C(=O)NC(c1ccc(C(=N)N)cc1)P(=O)(Oc1ccccc1)Oc1ccccc1 (mixture of isomers) [Cbz--Lyz(Boc)--Ala-(4-AmPhGly)^P (OPh)2] | 110 ± 5 | – | 8.5 ± 0.4 | 8.7 ± 0.4 | 3100 ± 177 | 3,100 ± 177 M^-1 s^-1 | 450 ± 58 M⁻¹ s⁻¹ |
| CC(NC(=O)C(CCCCN)NC(=O)OCc1ccccc1)C(=O)NC(c1ccc(C(=N)N)cc1)P(=O)(Oc1ccccc1)Oc1ccccc1 (mixture of isomers) [Cbz--Lys--Ala-(4-AmPhGly)^P (OPh)2] | 90 ± 9 | – | 2 | 2.0 ± 0.0 | 3140 ± 262 | 3,140 ± 262 M^-1 s^-1 | 180 ± 7 M⁻¹ s⁻¹ |
| N=C(N)c1ccc(C(NC(=O)[C@@H]2CCCN2C(=O)CC(c2ccccc2)c2ccccc2)P(=O)(Oc2ccccc2)Oc2ccccc2)cc1 (stereo partly shown) [3,3-Diphenylpropanoyl-Pro-(4-AmPhGly)^P (OPh)2] | 250 ± 8 | 1830 ± 140 | – | – | 2660 ± 40 | 2,660 ± 40 M^-1 s^-1 | 80,300 ± 368 M^-1 s^-1 |
